Results on 9 molecules are retold here after PubChem BioAssay (NCI).

The structures appear in SMILES notation.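 48-hour exposure; five concentrations; linearly interpolated endpoints. GI50 = concentration required for 50% inhibition of growth. At the TGI there is no net growth.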

What all share (test): inhibition of tumour cell growth, NCI panel, 48 h
In test [1] the test system is A549 NSCLC.
Test [2] concerns LOX IMVI melanoma.
The test system of test [3] is MDA-MB-231 breast.
Test [4] concerns NCI-H460 lung.
For test [5], the system named is SF-539 CNS.
Test [6] has as its system SK-MEL-28 melanoma.
In test [7] the test system is SNB-75 CNS.
The test system of test [8] is UACC-257 melanoma.

Take `COc1ccc(-c2nc(-c3nc4ccc(C(F)(F)F)cc4[nH]3)c3ccccn23)cc1`: the GI50 in test [1] was 28.5 µM; in test [2] it was 31.3 µM; in test [3] it was 50.6 µM; in test [4], 9.73 µM; in test [5], greater than 100 µM; in test [6], greater than 100 µM. In addition, the GI50 was 48.1 µM in test [7] and greater than 100 µM in test [8]. Besides, the TGI in test [1], in test [2], in test [3], in test [4], in test [5] and in test [6] was greater than 100 µM each time. Also, the TGI in test [7] and in test [8] was greater than 100 µM in each case.
On to `Cc1cc2c(cc1C)[n+](Cc1ccc3ccccc3n1)cn2Cc1ccc2ccccc2n1`, for which the GI50 in test [1] was 2.83 µM; in test [2] it was 0.669 µM; in test [3], 1.09 µM; in test [4], 0.63 µM; in test [5], 0.899 µM; in test [6] it was 0.992 µM. The GI50 in test [7] was 1.43 µM; in test [8], 1.23 µM. Also, the TGI in test [1] came out at 13 µM; in test [2], 2 µM; in test [3] it was 2.52 µM; in test [4], 2.21 µM; in test [5], 2.53 µM; in test [6], 2.47 µM. In addition, the values for the TGI in test [7] and in test [8] were 3.87 µM and 3.18 µM, respectively.
With `CCCCCSC1C2C(=O)C(Br)=CC13CCNc1c(O)c4c5c(c13)=[N+]2CCC=5C=N4` (centres undefined), the GI50 in test [1] is 2.88 µM; in test [2], 0.842 µM; in test [3], 0.417 µM; in test [4], 1.13 µM; in test [5], 2.78 µM; in test [6] it was 2.12 µM. The GI50 was 2.35 µM in test [7] and 0.385 µM in test [8]. The TGI was found to be 5.8 µM in test [1]; 3.35 µM in test [2]; 1.5 µM in test [3]; 4.32 µM in test [4]; 5.08 µM in test [5]; 4.55 µM in test [6]. For the same molecule, the TGI in test [7] is 4.56 µM; in test [8], 1.2 µM.
For `FC(F)(F)c1[nH]ncc1-c1nc2ccc3[nH]ncc3c2c2c1CCCC2`, the GI50 in test [1] was 1.77 µM; in test [2] it was 1.09 µM; in test [3], 1.84 µM; in test [4], 1.72 µM; in test [5], 1.2 µM; in test [6], 1.41 µM. Also, the GI50 was 1.1 µM in test [7] and 2.67 µM in test [8]. The TGI in test [1] is 8.45 µM; in test [2], 2.6 µM; in test [3], 6.19 µM; in test [4] it was 9.34 µM; in test [5], 2.83 µM; in test [6] it was 4.86 µM. For the same molecule, the TGI in test [7] is 2.52 µM; in test [8] it was 8.69 µM.
As for `N#C/C(=C\c1cccc2cnccc12)N1N=NC2C=CC=CC21` (centres undefined), the GI50 in test [1] was 3.02 µM; in test [2] it was 3.01 µM; in test [3] it was 1.94 µM; in test [4] it was 3.98 µM; in test [5] it was 2.65 µM; in test [6] it was 4.1 µM. Moreover, the GI50 in test [7] is 0.184 µM; in test [8] it was 4.54 µM. For the same molecule, the TGI in test [1] was greater than 100 µM; in test [2] it was greater than 100 µM; in test [3] it was 8.05 µM; in test [4] it was 32.7 µM; in test [5], 9.23 µM; in test [6], greater than 100 µM. For the same molecule, the TGI is 3.61 µM in test [7] and greater than 100 µM in test [8].
As to `Oc1c(CNCCNCc2cc(Cl)cc(Cc3ccccc3)c2O)cc(Cl)cc1Cc1ccccc1`, the GI50 in test [1] is 0.469 µM; in test [2], 0.136 µM; in test [3], 0.73 µM; in test [4] it was 0.331 µM; in test [5], 0.314 µM; in test [6] it was 0.478 µM. Moreover, the results for the GI50 in test [7] and in test [8] were 1.65 µM and 2.12 µM, respectively. Besides, the TGI in test [1] is greater than 100 µM; in test [2], 1.66 µM; in test [3] it was 25 µM; in test [4], 12.2 µM; in test [5] it was 3.93 µM; in test [6], 30.7 µM. For the same molecule, the values for the TGI in test [7] and in test [8] were 50.2 µM and 16.6 µM, respectively.
`CCN(CC)c1ccc(/C=C/C=C(/C#N)C(N)=S)cc1`: the GI50 in test [1] is 5.94 µM; in test [2], 4.71 µM; in test [3], 2.11 µM; in test [4], 18.1 µM; in test [5], 12.3 µM; in test [6], 21.2 µM. Besides, the GI50 in test [7] is 20.4 µM; in test [8], 5.05 µM. The TGI is greater than 100 µM in test [1]; 28.3 µM in test [2]; 6.03 µM in test [3]; greater than 100 µM in test [4]; 31.3 µM in test [5]; greater than 100 µM in test [6]. In addition, the TGI in test [7] is greater than 100 µM; in test [8], 34.4 µM.
`CCOC(=O)c1nc2cc(C(F)(F)F)ccc2[n+]([O-])c1C`: the GI50 in test [1], in test [2], in test [3], in test [4], in test [5] and in test [6] was greater than 100 µM in each case. Also, the GI50 in test [7] and in test [8] was greater than 100 µM in each case. The TGI in test [1], in test [2], in test [3], in test [4], in test [5] and in test [6] was greater than 100 µM in each case. Moreover, the TGI in test [7] and in test [8] was greater than 100 µM in each case.
As to `CN(C)c1ccc(/C=N/NC(=O)c2cccc3ccccc23)c(Cl)c1`, the GI50 in test [1] was 0.926 µM; in test [2] it was 1.86 µM; in test [3], 11.5 µM; in test [4] it was 1.01 µM; in test [5], 1.73 µM; in test [6], 3.5 µM. Besides, the values for the GI50 in test [7] and in test [8] were 1.57 µM and 1.07 µM, respectively. In addition, the TGI in test [1] is greater than 100 µM; in test [2], greater than 100 µM; in test [3], greater than 100 µM; in test [4] it was greater than 100 µM; in test [5] it was 26.1 µM; in test [6], greater than 100 µM. Also, the results for the TGI in test [7] and in test [8] were 16.3 µM and 97.5 µM, respectively.
